Common to all, as to assay type: cell-based
In one experiment the target is T1, HA-NanoLuc-WEIS (Homo sapiens, UniProt Q96SW2+Q9UKT9, N149E/Q147W/Q150I).
T1 construct: pLVX-Sprout-IKZF3 130-189aa Q147W N149E Q150I (WEIS); expressed in transfected cells; host or cells: HEK293T, lentiviral transduction, puromycin-selected
The experiment in a line: Nano-Glo luminescence assay in HEK293T cells. The settings on record: NanoGlo.

Experiment [1] addresses T2, WEIS-EGFP degron in Jurkat cells (Homo sapiens, UniProt Q96SW2+Q9UKT9, N149E/Q147W/Q150I).
T2 construct: pLVX-Sprout-IKZF3 130-189aa Q147W N149E Q150I (WEIS); expressed in transfected cells
As to the kind of experiment: Time-course EGFP/mCherry flow cytometry degradation assay. As to the method:
6 WEIS degron and compound 23 selectivity. Jurkat, ESC, and MM.1S cells were treated for 16 h with the corresponding compound or DMSO control, and the protein abundance was analyzed using multiplexed TMTpro quantification mass spectrometry. […] (A) Jurkat cells were treated with compound 23. (B). Jurkat cells treated with pomalidomide. (C) ESCs were treated with compound 23. (D) ESCs were treated with pomalidomide. (E) MM.1S cells treated with compound 23. […] Values shown are the mean of three biological replicates. WEIS degron and compound 23 kinetic degradation profile. (G) Jurkat cells were transduced with the WEIS-EGFP degron, then incubated with a concentration range of compound 23 (1 pM – 10 μM) for 1–24 h [as shown] and analyzed using flow cytometry. The DMSO-normalized ratiometric values of EGFP/mCherry are shown. (H). The half-maximal (DC50) values from the assay in […] are shown. Mean and SD values are plotted from three biological replicates. […] (J) Jurkat cells were lentivirally transduced with TRIM28 with either N-terminal or C-terminal WEIS degron tag (or untagged control) and HiBit peptide tag, then incubated with a concentration curve of compound 23 (100 pM – 10 μM) for 24 h and analyzed using a HiBit luminescence assay. […] HEK293T cells were lentivirally transduced with one of three POI fusion constructs–NanoLuc, CDK9, or HPRT1–with an N-terminal HA tag and a C-terminal WEIS degron, then incubated with a concentration range of compound 23 (1 nM – 10 μM) for 18 h and analyzed using HA antibody immunoblotting. […] HEK293T cells were lentivirally transduced with NanoLuc with an N-terminal HA tag and a C-terminal WEIS degron, then incubated with a concentration curve of compound 23 (1 nM – 10 μM) for either 6 or 18 h, and analyzed using a NanoGlo luminescence assay. […]
We performed a time-course experiment in which Jurkat cells transduced with the WEIS-EGFP degron were treated with compound 23 at a range of concentrations (1 pM–10 μM) at a selection of time points, and the ratiometric degradation values of EGFP/mCherry were assessed using flow cytometry, as above. […]

The target in experiment [2] is T2, WEIS-EGFP degron in Jurkat cells. The experiment in a line: GFP degradation flow cytometry assay with proteasome inhibitor carfilzomib. The settings on record: carfilzomib (1 μM) pre-incubation; 1-24 h. In general terms: A flow cytometer gives signals particle by particle.

T2 sequence (Q9UKT9 130-189 Q147W/N149E/Q150I): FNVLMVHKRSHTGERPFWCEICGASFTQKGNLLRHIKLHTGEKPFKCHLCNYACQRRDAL
T2 sequence (Q96SW2 whole entry): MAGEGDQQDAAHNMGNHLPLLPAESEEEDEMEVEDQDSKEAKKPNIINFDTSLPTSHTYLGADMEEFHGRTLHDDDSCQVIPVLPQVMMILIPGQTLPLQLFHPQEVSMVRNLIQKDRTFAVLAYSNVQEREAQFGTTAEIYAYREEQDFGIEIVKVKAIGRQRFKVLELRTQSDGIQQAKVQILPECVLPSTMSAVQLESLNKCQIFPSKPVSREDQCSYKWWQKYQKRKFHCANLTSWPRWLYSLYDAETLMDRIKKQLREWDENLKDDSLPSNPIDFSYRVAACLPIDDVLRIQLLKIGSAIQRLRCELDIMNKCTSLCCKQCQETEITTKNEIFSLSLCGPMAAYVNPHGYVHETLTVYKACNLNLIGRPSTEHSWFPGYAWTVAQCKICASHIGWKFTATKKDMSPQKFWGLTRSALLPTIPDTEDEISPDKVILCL
T2 sequence (Q16531 whole entry partner): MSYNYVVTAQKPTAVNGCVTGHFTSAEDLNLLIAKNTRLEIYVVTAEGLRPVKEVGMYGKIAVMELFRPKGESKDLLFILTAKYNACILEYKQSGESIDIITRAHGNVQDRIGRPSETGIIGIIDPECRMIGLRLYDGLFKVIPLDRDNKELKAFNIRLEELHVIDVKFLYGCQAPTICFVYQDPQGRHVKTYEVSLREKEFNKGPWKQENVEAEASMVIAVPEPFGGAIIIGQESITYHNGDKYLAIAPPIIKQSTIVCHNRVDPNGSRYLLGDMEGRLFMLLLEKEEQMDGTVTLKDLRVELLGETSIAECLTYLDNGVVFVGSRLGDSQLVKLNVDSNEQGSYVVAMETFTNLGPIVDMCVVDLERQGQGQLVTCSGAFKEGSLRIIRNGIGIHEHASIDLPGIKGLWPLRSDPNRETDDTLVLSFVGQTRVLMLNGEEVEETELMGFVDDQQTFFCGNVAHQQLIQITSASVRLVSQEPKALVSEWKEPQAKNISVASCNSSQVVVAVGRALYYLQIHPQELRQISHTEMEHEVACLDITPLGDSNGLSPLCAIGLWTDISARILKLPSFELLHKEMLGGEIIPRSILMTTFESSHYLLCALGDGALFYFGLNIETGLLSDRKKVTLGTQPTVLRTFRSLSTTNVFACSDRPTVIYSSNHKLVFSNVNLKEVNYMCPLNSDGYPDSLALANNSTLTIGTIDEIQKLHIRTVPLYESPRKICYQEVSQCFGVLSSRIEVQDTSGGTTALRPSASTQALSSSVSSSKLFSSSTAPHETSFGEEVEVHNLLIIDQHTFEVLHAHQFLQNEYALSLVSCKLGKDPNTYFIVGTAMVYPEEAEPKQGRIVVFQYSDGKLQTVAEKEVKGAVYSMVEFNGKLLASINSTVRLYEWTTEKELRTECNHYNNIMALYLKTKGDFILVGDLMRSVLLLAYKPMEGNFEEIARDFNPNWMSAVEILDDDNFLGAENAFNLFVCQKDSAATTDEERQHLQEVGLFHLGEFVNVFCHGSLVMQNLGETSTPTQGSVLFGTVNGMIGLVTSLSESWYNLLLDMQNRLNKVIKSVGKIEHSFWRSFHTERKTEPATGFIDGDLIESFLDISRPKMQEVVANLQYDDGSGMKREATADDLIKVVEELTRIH
T1 sequence (Q9UKT9 130-189 Q147W/N149E/Q150I): as the sequence (Q9UKT9 130-189 Q147W/N149E/Q150I) above
T1 sequence (Q96SW2 whole entry): as the sequence (Q96SW2 whole entry) above
T1 sequence (Q16531 whole entry partner): as the sequence (Q16531 whole entry partner) above
Method for HA-NanoLuc-WEIS: To this end, a nuclear protein, CDK9, and a cytoplasmic protein, HPRT1, were selected, in addition to a well-characterized enzyme capable of generating bioluminescence, NanoLuc. , Fusion constructs comprising a POI with an N-terminal HA tag linked to the POI by two glycine residues and a C-terminal WEIS motif linked to the POI by a flexible [sequence] linker region were exogenously expressed in HEK293T cells.
Compound 23 (10 mM stock in DMSO) was serially diluted 10-fold to create an 5-point dilution spanning 1n M–10 μM (final assay concentration) and an untreated control, with all concentrations at 0.1% DMSO. HEK293T cells transduced with HA-NanoLuc-WEIS lentiviral vectors were seeded in white, opaque, flat-bottom 96-well plate (Falcon) at 2 × 10^4 cells per well in 40 µL
signal was measured by adding 40 µL of the Nano-Glo lytic detection reagent (Promega),
incubating at rt for 3 minutes, then reading using an EnVision multimode plate reader
(PerkinElmer). […] Three biological repeats
were carried out for this assay, with each biological replicate plate comprising three replicate

As for `CN1CCN(c2ccc3c(c2)C(=O)N(C2CCC(=O)NC2=O)C3=O)CC1` (stereo not shown) [Compound 23], the D max came to 53% at HA-NanoLuc-WEIS (6 h) and 35% on HA-NanoLuc-WEIS (18 h). Moreover, the DC50 was found to be 290 nM at HA-NanoLuc-WEIS (18 h), 10.3 nM in experiment [1] (time point 1 h), 2.3 nM in experiment [1] (time point 6 h) and 18.3 nM in experiment [1] (time point 24 h). Also, the “WEIS-EGFP degradation with carfilzomib” value in experiment [2] is “rescued”.

The record behind these values is PMC12645437, “Orthogonal IMiD-Degron Pairs Induce Selective Protein Degradation in Cells” (ACS Chemical Biology, 2025).
